“And” between values parts separate entries of the source, which are not always exact repeats. Identical values can stand only once. Like-named read-outs stand apart in the source and are kept apart here.
Key:
[1] = tested on: stéréotypies induites chez le Rat par l'apomorphine (agoniste direct); assay: Potentiation of apomorphine-induced stereotypies in the rat; format: in vivo; details: for DE50 vis-à-vis de l'apomorphine: Bliss method, two trials not named
Description: (§1) A cet effet, le composé de l'invention a été étudié vis-à-vis de la potentialisation des stéréotypies induites chez le Rat par deux agonistes dopaminergiques, l'apomorphine (agoniste direct) et la d-amphétamine (agoniste indirect).
(§2) Dans les deux essais, la dose d'agoniste est choisie telle qu'elle n'entraîne pas, chez tous les animaux d'expérience, l'apparition de mouvements stéréotypés de la sphère buccale de type léchage ou mâchonnement (Apomorphine : 0,250 mg.kg^-1 S.C. - d-amphétamine : 3 mg.kg^-1 I.P.).
(§3) L'observation de ce comportement stéréotypé chez un plus grand nombre d'animaux consécutif à l'administration de doses croissantes du composé de l'invention, injectées par voie I.P. 30 minutes avant l'agoniste, traduit un renforcement dopaminergique.
(§4) Les DE50 déterminées par la méthode de Bliss assortie des limites de confiance à 95% sont de 10,8 et 8,9 mg.kg.^-1 I.P. vis-à-vis de l'apomorphine et 1,4 et 2,6 mg.kg^-1 vis-à-vis de la d-amphétamine.

[2] = tested on: stéréotypies induites chez le Rat par la d-amphétamine (agoniste indirect); assay: Potentiation of d-amphetamine-induced stereotypies in the rat; format: in vivo; details: for DE50 vis-à-vis de la d-amphétamine: Bliss method, two trials not named
Description: as §1, §2, §3, §4

[3] = tested on: récepteurs dopamine centraux; assay: Inhibition of apomorphine-induced rearing (climbing) movement in mice; format: in vivo; details: souris, I.P., apomorphine 1 mg/kg S.C.
Description: 2) - Les deux composés ne se distinguent pas non plus quand leur propriété antagoniste dopaminergique centrale est jugée par exemple d'après l'inhibition qu'ils provoquent du mouvement de redressement induit chez la souris par l'apomorphine (1 mg/kg S.C.).
Les doses inhibitrices 50 de ce mouvement sont voisines pour les deux composés, respectivement : […]

[4] = Double-blind comparative clinical trial versus imipramine in depression; format: in vivo, humaine; details: for tolérance tant clinique que biologique: 450 mg par jour (compound), 150 mg par jour (IMIPRAMINE)
Description: En conséquence, un essai clinique comparatif en double aveugle a été mené mettant en oeuvre le composé selon l'invention et l'IMIPRAMINE, produit de référence indiscutable dans le traitement de certains états dépressifs.
Les posologies retenues ont été fixées : • . pour l'IMIPRAMINE en fonction des données acquises et de la posologie préconisée par le fabricant, c'est-à-dire : 150 mg par jour, dose atteinte progressivement en 5 jours; • . pour le composé selon l'invention, à partir des données recueillies par les études antérieures, c'est-à-dire : 450 mg par jour. Bien que cette posologie puisse, du fait de l'excellente tolérance du produit, être administrée d'emblée, pour se plier aux règles du double-aveugle et respecter le mode d'administration optimum pour l'IMIPRAMINE, cette dose n'a également été atteinte que le Sème jour après deux paliers successifs de : 150 et 300 mg par jour. Toutefois d'autres études permettent de penser que des doses plus faibles du composé selon l'invention aboutissent à des résultats similaires.
Ces doses ont été administrées pendant 28 jours consécutifs en mono- thérapie, dans toute la mesure du possible.
Pouvaient entrer dans l'étude, les sujets présentant une dépression authentique c'est-à-dire atteignant le score de 36 à la version simplifiée à 17 items de l'échelle de Hamilton.
La comparaison entre les deux produits a porté sur l'efficacité thérapeutique et sur la tolérance, 34 cas ayant été analysés. Pour établir cette comparaison, le protocole prévoyait trois bilans : • . avant le début du traitement (JO) • . au 10ème jour (J10) • . au 28ème jour (J28)
Chacun de ces bilans comportait obligatoirement : • . une B.P.R.S. • une échelle de Hamilton (26 items) • une appréciation par l'expert de 1"'intensité du syndrome dépressif" • une recherche des troubles somatiques associés à l'état dépressif.
De plus, à JO et à J28, il a été pratiqué une auto-appréciation de son état par le malade (S.D.S.) et un bilan biologique standard.
Enfin, en fin de traitement, il a été convenu d'exprimer une impression subjective globale sur l'intérêt du traitement pour chaque observation.

[5] = Acute toxicity, LD50 in mice by different routes; format: in vivo; details: souris; for LD50: mouse, in vivo, read-out: DL 50 (the source's name)
Source text: Au plan toxicologique, la détermination des DL 50 des deux produits administrés chez la souris par différentes voies ne révèle aucune différence majeure, le Sulpiride étant toutefois un peu moins toxique par voie buccale.

[6] = tested on: récepteurs dopamine du centre du vomissement; assay: Antiemetic power in the dog (apomorphine-induced emesis); format: in vivo; details: vomiting induced by apomorphine
Source text: D'une façon générale, ces dérivés benzamides interfèrent dans les mécanismes dopaminergiques du système nerveux. Leurs effets bloquants sur les récepteurs dopamine centraux leur confèrent des propriétés neuroleptiques. Leur effet bloquant sur les récepteurs dopamine du centre du vomissement se traduit par un puissant antagonisme à l'égard de l'effet émétisant de certains agonistes dopaminergiques, tels que l'apomorphine et les alcaloïdes de l'ergot de seigle.
Au plan pharmacologique, les interférences des deux composés dans le système dopamine ont été comparées par différents tests adaptés à la mise en évidence des effets antagonistes et agonistes. Il en résulte que : • 1) - le composé selon l'invention et le Sulpiride sont de très puissants antagonistes dans le test de l'emesis chez le chien où les vomissements sont provoqués par l'agoniste apomorphine.
Les valeurs des DE 50 montrent que les activités des deux composés sont équivalentes.

[7] = Essai I, 4 mg.kg^-1 I.P. 30 min before Apomorphine 0,250 mg.kg^-1 S.C.
[8] = Essai I, 8 mg.kg^-1 I.P. 30 min before Apomorphine 0,250 mg.kg^-1 S.C.
[9] = Essai I, 16 mg.kg^-1 I.P. 30 min before Apomorphine 0,250 mg.kg^-1 S.C.
[10] = Essai II, 4 mg.kg^-1 I.P. 30 min before Apomorphine 0,250 mg.kg^-1 S.C.
[11] = Essai II, 8 mg.kg^-1 I.P. 30 min before Apomorphine 0,250 mg.kg^-1 S.C.
[12] = Essai II, 16 mg.kg^-1 I.P. 30 min before Apomorphine 0,250 mg.kg^-1 S.C.
[13] = Essai I, 2 mg.kg^-1 I.P. 30 min before d-Amphétamine 3 mg.kg^-1 I.P.
[14] = Essai I, 4 mg.kg^-1 I.P. 30 min before d-Amphétamine 3 mg.kg^-1 I.P.
[15] = Essai I, 8 mg.kg^-1 I.P. 30 min before d-Amphétamine 3 mg.kg^-1 I.P.
[16] = Essai II, 1 mg.kg^-1 I.P. 30 min before d-Amphétamine 3 mg.kg^-1 I.P.
[17] = Essai II, 4 mg.kg^-1 I.P. 30 min before d-Amphétamine 3 mg.kg^-1 I.P.
[18] = Essai II, 16 mg.kg^-1 I.P. 30 min before d-Amphétamine 3 mg.kg^-1 I.P.

Compound	% d'activité [1, 7] [%]	Nombre d'animaux positifs/16 [1, 7]	% d'activité [1, 8] [%]	Nombre d'animaux positifs/16 [1, 8]	% d'activité [1, 9] [%]	Nombre d'animaux positifs/16 [1, 9]	% d'activité [2, 13] [%]	Nombre d'animaux positifs/16 [2, 13]	% d'activité [2, 14] [%]	Nombre d'animaux positifs/16 [2, 14]	% d'activité [2, 15] [%]	Nombre d'animaux positifs/16 [2, 15]	doses inhibitrices 50 du mouvement de redressement [3] [mg/kg I.P.]	tolérance tant clinique que biologique ([4]; 28 days)	Pouvoir antiémétique chez le chien DE 50 S.C. [6]	further results
N-(1-propyl-2-pyrrolidylméthyl)-2-méthoxy-5-sulfamoyl benzamide [Composé selon l'invention]	23	6	46	9	69	12	38	6	69	11	88	14	32	moindre fréquence de l'apparition ou de l'aggravation d'une symptomatologie somatique	4,1 γ/kg	% d'activité [1, 10]: 7%; Nombre d'animaux positifs/16 [1, 10]: 2; % d'activité [1, 11]: 33%; Nombre d'animaux positifs/16 [1, 11]: 6; % d'activité [1, 12]: 67%; Nombre d'animaux positifs/16 [1, 12]: 11; DE50 vis-à-vis de l'apomorphine ([1]; I.P., listed as composé de l'invention): 10,8 mg.kg^-1 and 8,9 mg.kg^-1; DE50 vis-à-vis de la d-amphétamine ([2]; listed as composé de l'invention): 1,4 mg.kg^-1 and 2,6 mg.kg^-1; % d'activité [2, 16]: 38%; Nombre d'animaux positifs/16 [2, 16]: 6; % d'activité [2, 17]: 81%; Nombre d'animaux positifs/16 [2, 17]: 13; % d'activité [2, 18]: 94%; Nombre d'animaux positifs/16 [2, 18]: 15; efficacité ([4]; compared with IMIPRAMINE 150 mg par jour, compound 450 mg par jour, 28 days): au moins égale à celle de l'IMIPRAMINE; rapidité d'action sur l'état dépressif ([4]; compared with IMIPRAMINE, J10 versus J28): agit plus rapidement sur l'état dépressif que l'IMIPRAMINE; DL 50 ([5]; I.P.): 181 to 203 mg/kg; DL 50 ([5]; I.V.): 51,7-52,6 mg/kg; DL 50 ([5]; P.O.): 1411 to 1423 mg/kg; DL 50 ([5]; S.C.): 337 to 363 mg/kg
CCN1CCCC1CNC(=O)c1cc(S(N)(=O)=O)ccc1OC (stereo not shown) [Sulpiride, N-(1-éthyl-2-pyrrolidinyl-méthyl)-2-méthoxy-5-sulfamoyl benzamide, reference compound]	15	5	31	7	15	5	6	1	13	2	6	1	22		3,5-4,8 γ/kg	DE50 mg.kg^-1 I.P. base ([1]; Essai I, I.P., base, Apomorphine 0,250 mg.kg^-1 S.C., 95% confidence limits in brackets): inactif; DE50 vis-à-vis de l'apomorphine ([1]; I.P.): inactif; DE50 vis-à-vis de la d-amphétamine [2]: inactif; DE50 mg.kg^-1 I.P. base ([2]; Essai I, I.P., base, d-Amphétamine 3 mg.kg^-1 I.P., 95% confidence limits in brackets): inactif; LD50 ([5]; ip, I.P.): 210 mg/kg; LD50 ([5]; iv, I.V.): 43.5 to 44 mg/kg; LD50 ([5]; po, P.O.): 1800 to 2890 mg/kg; LD50 ([5]; sc, S.C.): 372 mg/kg
CN(C)CCCN1c2ccccc2CCc2ccccc21 [IMIPRAMINE, reference compound]														troubles de la série anticholinergique nettement plus importants et plus sévères		
